Conditions: 298.2 K

O=C(O)c1cccc([N+](=O)[O-])c1
Conditions	solubility (mole fraction)
in 1,4-dioxane	0.193
in 2-methyl-1-butanol	0.11
in 2-methyl-1-pentanol	0.134
in 2-pentanol	0.176
in THF	0.36
in dibutyl ether	0.0346
in diethyl ether	0.127
in diisopropyl ether	0.0591
in ethanol	0.175
in ethyl acetate	0.138
in isobutanol	0.113
in isopentanol	0.145
in isopropanol	0.17
in methanol	0.211
in methyl acetate	0.147
in n-butanol	0.146
in n-butyl acetate	0.108
in n-decanol	0.139
in n-heptanol	0.136
in n-hexanol	0.139
in n-octanol	0.144
in n-pentanol	0.143
in n-propanol	0.149
in propylene carbonate	0.0834
in sec-butanol	0.188
in tert-butanol	0.217
